US20200354327A1, “COMPOUND HAVING STAT3 INHIBITORY ACTIVITY AND USE THEREOF” (CYTUS H&B CO., LTD., priority 2017, published 2020)

Experiments:
[1] = test system: U87-MG cells; experiment: Wound healing assay, U87-MG; assay type: cell-based, human; conditions: 24 hours
Method: Wound healing assay was performed as previously described (Jung J E, et al. FASEB J. 19, 1296-1298 (2005)). The respective cells were dispensed into a 12-well plate (U87-MG: 5×10^5 cells/ml; MDA-MB-231: 3×10^5 cells/ml) and cultured until the cells proliferated 90% or more. Cells scraped off from the plate with the tip of the pipette were washed two times with PBS. After 24 hours, the proliferation (invasion) of cells at the part from which the cells were had been removed was observed under a microscope, and images were taken.

[2] = test system: Bcl-2 and Bcl-XL; experiment: Real-time polymerase chain reaction of anti-apoptotic genes; assay type: cell-based, human
Method: RNA isolation and real-time polymerase chain reaction were performed as described previously (Jung J E, et al. FASEB J. 19, 1296-1298 (2005)). Primer specific for human-derived Bcl-XL, Bcl-2, Twist, and GADPH genes were mixed with QuantiFast SYBR Green PCR master mix, and each gene was amplified using the Applied Biosystems 7300 real-time PCR system to compare the expression level.

[3] = molecular target: T1, STAT3 (Homo sapiens, UniProt P40763); experiment: STAT3-TA-luciferase assay in HEK293T cells; assay type: cell-based
T1 sequence (P40763 whole entry): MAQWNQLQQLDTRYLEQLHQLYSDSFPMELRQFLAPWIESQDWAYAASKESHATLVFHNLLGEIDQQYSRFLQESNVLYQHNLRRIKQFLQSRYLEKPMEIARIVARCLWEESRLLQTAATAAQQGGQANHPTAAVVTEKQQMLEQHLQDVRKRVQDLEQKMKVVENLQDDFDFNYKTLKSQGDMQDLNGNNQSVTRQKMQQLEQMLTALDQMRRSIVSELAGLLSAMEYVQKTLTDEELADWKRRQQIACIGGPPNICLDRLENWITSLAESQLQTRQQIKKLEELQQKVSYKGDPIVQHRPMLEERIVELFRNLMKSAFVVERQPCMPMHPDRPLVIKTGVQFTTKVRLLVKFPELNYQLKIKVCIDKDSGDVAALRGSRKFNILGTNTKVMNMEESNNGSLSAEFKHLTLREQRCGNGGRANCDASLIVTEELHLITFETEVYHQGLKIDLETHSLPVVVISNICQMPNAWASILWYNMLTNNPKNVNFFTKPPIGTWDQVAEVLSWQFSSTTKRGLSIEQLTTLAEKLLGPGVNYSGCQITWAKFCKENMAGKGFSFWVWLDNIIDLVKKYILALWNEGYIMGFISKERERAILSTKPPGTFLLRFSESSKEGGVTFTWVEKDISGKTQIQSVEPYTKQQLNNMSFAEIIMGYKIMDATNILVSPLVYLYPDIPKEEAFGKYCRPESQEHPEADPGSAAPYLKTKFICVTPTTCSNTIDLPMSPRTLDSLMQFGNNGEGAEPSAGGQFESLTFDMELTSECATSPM
Method: Assay on the expression of luciferase was performed as previously described (Jung J E, et al. FASEB J. 19, 1296-1298 (2005)). Plasmid DNA having STAT3-TA-luciferase as a reporter construct was temporarily expressed in HEK293T cells using Lipofectamine 2000, the HEK293T cells were treated with ODZ10117, the level of STAT3 expression was measured using a luminometer, and the inhibitory effect was compared with that of the DMSO-treated group.

[4] = test system: MDA-MB-231 cells; experiment: Human tumor cell xenograft, MDA-MB-231; assay type: in vivo, BALB/c nude mice; conditions: MDA-MB-231 xenograft, injected directly into the tumor, versus DMSO
Method: Male Nude Mouse (BALB/cAnNCrj-nu/nu) was purchased from Charles River Japan Inc. (Shin-Yokohama, Japan). The mouse was bred in a clean room in which the temperature and humidity were constantly controlled. The breeding process was carried out according to the method described in the manual for maintenance of laboratory animals in Seoul National University. U87-MG cells or MDA-MB-231 cells were diluted with PBS, suspended in 100 μl of Matrigel at 25% concentration, and injected into the back of mouse and bred for 6 to 10 weeks. Human tumor growth was measured every other day using a vernier caliper from 2 weeks after cell injection. With regard to the degree of inhibition of human tumor cell formation, 40 μM of ODZ10117 was directly injected into the human tumor on days 0, 3, and 5 from week 4 of tumor cell injection. On the 7th day, the mouse was sacrificed to separate the tumor, and the tumor cell inhibitory efficacy of the drug was measured by being compared with that of the control group treated with 1% DMSO.

[5] = molecular target: T1, STAT3; experiment: Western blot in STAT3-phosphorylated human malignant glioblastoma; assay type: cell-based; parameters: endogenous in cells; host or cells: L540, HDLM-2, U87-MG, MDA-MB-231, further human glioblastoma and breast cancer lines
Method: (§1) Western blot analysis was performed (Jung J E, et al. FASEB J. 19, 1296-1298 (2005)). The cells were washed two times with PBS and suspended in the lysate (50 mM Tris-HCl, pH 7.4, 350 mM NaCl, 1% Triton X-100, 0.5% Nonidet P-40, 10% glycerol, 0.1% SDS, 1 mM EDTA, 1 mM EGTA, 1 mM Na3VO4, 1 mM PMSF, protease and phosphorylation inhibitor) and the cell membrane and nuclear membrane were crushed to lyse the cells. The insoluble protein fraction was removed by centrifugation, and the supernatant was mixed with SDS electrophoresis buffer and electrophoresis (SDS-PAGE) was performed to detect the protein with the desired antibody and to confirm the protein expression level.

[6] = test system: STAT92E; experiment: Drosophila cell luciferase assay (10XSTAT92E-luciferase reporter); assay type: cell-based; conditions: compared with DMSO-treated group, concentration-dependent
Method: Drosophila cells (S2-NP, 24×3) used in the experiment were cultured as previously described (Kim B H, et al. Mol Cancer Ther. 7, 2672-2680 (2008)). S2-NP (Drosophila Schneider cell) cells were Drosophila-derived macrophage-like cells and were cultured in Schneider's medium. 24×3 cells were cell lines stably expressed by inserting 10XSTAT92E-luciferase and PolIII-Renilla luciferase-labeled plasmid DNA as reporter constructs into S2-NP cells and were cultured in a medium prepared by adding […] of geneticin to the same medium as that for S2-NP. S2-NP cells in which unpaired (upd) or HOPT^Tum-l as a ligand was expressed and 24×3 cells constructed with reporter constructs were mixed at a constant ratio and cultured for 24 hours in the presence of a compound, the expression level of STAT92E was measured using a luminometer, and the inhibition effect was compared with that of the DMSO-treated group.

[7] = test system: U87-MG cells; experiment: Survival of mice injected with U87-MG cells; assay type: in vivo; conditions: versus DMSO
[8] = test system: caspase-3 and PARP; experiment: Western blot of caspase-3 and PARP; assay type: cell-based, human
Method: as §1

[9] = test system: U87-MG cells; experiment: Matrigel invasion assay, U87-MG; assay type: cell-based, human; conditions: 24 hours, versus DMSO
Method: (§2) The growth factor-reduced Matrigel was diluted with a serum-free culture solution at a 1:3 ratio, transferred to a 24-well plate, and solidified at 37° C. for 5 hours. The cells were placed in a culture solution containing 1% serum and added to the solidified Matrigel, 600 μl of a culture solution containing 10% serum to which fibronectin was added at a concentration of […] was added thereto, and the cells were cultured for 24 hours. Thereafter, the cells were fixed and stained by adding Diffquick solution thereto and then observed under a Leica Application Suite microscope, and images were taken.

[10] = test system: MDA-MB-231 cells; experiment: Matrigel invasion assay, MDA-MB-231; assay type: cell-based, human; conditions: MDA-MB-231, 24 hours, versus DMSO
Method: as §2

`Clc1ccc(OCc2noc(C(Cl)(Cl)Cl)n2)c(Cl)c1` [ODZ10117, 3-(2,4-dichloro-phenoxymethyl)-5-trichloromethyl-[1,2,4]oxadiazole] was tested. Which cell migration [1] did it give?
The cell migration was “significantly inhibited the migration of these cells”.

And the “expression levels of anti-apoptotic genes Bcl-2 and Bcl-XL” value [2]?
Its value is “effectively inhibited the expression of these genes”.

And the “promoter activity of STAT3” value ([3]; compared with DMSO-treated group)?
Its value is “significantly decreased the promoter activity of STAT3”.

What about the “transcriptional activity of STAT3” value ([3]; various concentrations) of the same molecule?
The value was “inhibited the transcriptional activity of STAT3 in a concentration-dependent manner”.

What about the tumor growth [4] of the same molecule?
Its tumor growth is “significantly inhibited tumor growth”.

What about the “phosphorylation of tyrosine 705 of STAT3” value [5] of the same molecule?
The value was “inhibited the phosphorylation of tyrosine 705 of STAT3 in STAT3-phosphorylated human malignant glioblastoma in a concentration-dependent manner”.

And the “time to complete inhibition of phosphorylation of STAT3 after treatment” value [5]?
The value was at most 2 h.

And the “STAT3 inhibitory efficacy compared with known inhibitors” value ([5]; versus NSC628869 and NSC74859)?
Its value is “superior STAT3 inhibitory efficacy to NSC628869 and NSC74859”.

And the “promoter activity of STAT92E” value [6]?
Its value is “significantly decreased the promoter activity of STAT92E”.

What about the survival time [7] of the same molecule?
The survival time was “survival time increased”.

And the “amount of fragmented caspase-3 and PARP proteins” value [8]?
The value was “significantly increased the amount of fragmented caspase-3 and PARP proteins”.

What about the cell invasion [9] of the same molecule?
Its cell invasion is “significantly decreased cell invasion in both the two cell lines”.

What about the cell invasion [10] of the same molecule?
The cell invasion was “significantly decreased cell invasion in both the two cell lines”.
